In patent US5591755A, “Pyridinyl thiadiazolyl compounds for treating glaucoma” (Novo Nordisk A/S, priority 1990, dated 1997):
pKd: −log10 of the molar value. Where a name gives a salt, the structure may show the parent alone. Read-outs that look alike come from different tables or passages of the source.

Experiments:
[1] = in vivo; cited from earlier work
[2] = tested on: central and peripheral muscarinic effects; details: cited from earlier work
[3] = target: muscarinic acetylcholine receptors; test: inhibition of specific binding of 3H-Oxotremorine-M (3H-Oxo), in vitro; design: species or system rat (cortex from male Wistar rats); details: 3H-Oxo binding, rat cortex, 1.0 nM radioligand, 20 mM Hepes pH 7.4, 30 min at 25° C.
Description: The pharmacological properties of the compounds of the invention can be illustrated by determining their capability to inhibit the specific binding of ^3 H-Oxotremorine-M (^3 H-Oxo). Birdsdall N. J. M., Hulme E. C., and Burgen A. S. V. (1980). "The Character of Muscarinic Receptors in Different Regions of the Rat Brain". Proc. Roy. Soc. London (Series B) 207,1. ^3 H-Oxo labels muscarinic receptor in the CNS (with a preference for agonist domaines of the receptors). Three different sites are labelled by ^3 H-Oxo. […] Using the present experimental conditions only the high and medium affinity sites are determined.
The inhibitory effects of compounds on ^3 H-Oxo binding reflects the affinity for muscarinic acetylcholine receptors.
All preparations are performed at 0°-4° C. unless otherwise indicated. Fresh cortex (0.1-1 g) from male Wistar rats (150-250 g) is homogenized for 5-10 s in 10 ml 20 mM Hepes pH: 7.4, with an Ultra-Turrax homogenizer. The homogenizer is rinsed with 10 ml of buffer and the combined suspension centrifuged for 15 min at 40,000×g. The pellet is washed three times with buffer. In each step the pellet is homogenized as before in 2×10 ml of buffer and centrifuged for 10 min at 40,000×g.
The final pellet is homogenized in 20 mM Hepes pH: 7.4 (100 ml per g of original tissue) and used for binding assay. Aliquots of 0.5 ml is added 25 μl of test solution and 25 μl of 3H-Oxotremorine (1.0 nM, final concentration) mixed and incubated for 30 min at 25° C. Non-specific binding is determined in triplicate using arecoline (1 μg/ml, final concentration) as the test substance. After incubation samples are added 5 ml of ice-cold buffer and poured directly onto Whatman GF/C glass fiber filters under suction and immediately washed 2 times with 5 ml of ice-cold buffer. The amount of radioactivity on the filters are determined by conventional liquid scintillation counting. Specific binding is total binding minus non specific binding.
Test substances are dissolved in 10 ml water (if necessary heated on a steambath for less than 5 minutes) at a concentration of 2.2 mg/ml.
The test value will be given as IC50 (the concentration (ng/ml) of the test substance which inhibits the specific binding of ^3 H-Oxo by 50%). [formula] where Co is specific binding in control assays and Cx is the specific binding in the test assay. (The calculations assume normal mass-action kinetics).

[4] = target: muscarinic receptor in the CNS; details: read-out: affinity of sites labelled by 3H-Oxo, cited from earlier work

Row | SMILES | Inhibition in vitro OXO BINDING (IC50) [3] | other results
1 | COC(=O)C1=CCCN(C)C1 [Arecoline, methyl 1-methyl-1,2,5,6-tetrahydropyridine-3-carboxylate] |  | biological half life [1]: very short biological half life; separation between central and peripheral muscarinic effects [2]: small separation between central and peripheral muscarinic effects
2 | COc1nsnc1C1=C(C)CCN(C)C1.O=C(O)/C=C/C(=O)O [Compound 1, 1,2,5,6-Tetrahydro-3-(4-methoxy-1,2,5-thiadiazol-3-yl)-1,4-dimethylpyridine fumarate] | 108 ng/mL | 
3 | CCCCCCOc1nsnc1C1=C(C)CCN(C)C1 [Compound 2, 3-(4-Hexyloxy-1,2,5-thiadiazol-3-yl)-1,2,5,6-tetrahydrohydro-1,4-dimethylpyridine oxalate] | 18 ng/mL | 
4 | CCCCCCSc1nsnc1C1=CCC(C)N(C)C1.O=C(O)C(=O)O (stereo not shown) [Compound 3, 3-(3-Hexylthio-1,2,5-thiadiazol-4-yl)-1,2,5,6-tetrahydro-1,6-dimethylpyridine oxalate] | 4.5 ng/mL | 
5 | C[N+](C)(C)CC#CCN1CCCC1=O [Compound 3H-Oxo, ^3 H-Oxotremorine-M] |  | pKd ([4]; first of three sites (high affinity)): 8.74; pKd ([4]; second of three sites (medium affinity)): 7.70; pKd ([4]; third of three sites (not determined under the present conditions)): 5.52
6 | CCCCCSc1nsnc1C1=CCC(C)N(C)C1.O=C(O)C(=O)O (stereo not shown) [Compound 4, 3-(3-Pentylthio-1,2,5-thiadiazol-4-yl)-1,2,5,6-tetrahydro-1,6-dimethylpyridine oxalate] | 2.0 ng/mL | 
7 | CC1CC=C(c2nsnc2SCc2ccc(C#N)cc2)CN1C.O=C(O)C(=O)O (stereo not shown) [Compound 5, 3-(3-(4-Cyanobenzylthio)-1,2,5-thiadiazol-4-yl)-1,2,5,6-tetrahydro-1,6-dimethylpyridine oxalate] | 1.9 ng/mL | 
8 | CCCCCCOc1nsnc1C1=CCC(C)N(C)C1.O=C(O)C(=O)O (stereo not shown) [Compound 6, 3-(3-Hexyloxy-1,2,5-thiadiazol-4-yl)-1,2,5,6-tetrahydro-1,6-dimethylpyridine oxalate] | 2.4 ng/mL | 
9 | CCCCCOc1nsnc1C1=CCC(C)N(C)C1.O=C(O)C(=O)O (stereo not shown) [Compound 7, 3-(3-Pentyloxy-1,2,5-thiadiazol-4-yl)-1,2,5,6-tetrahydro-1,6-dimethylpyridine oxalate] | 3.3 ng/mL | 
10 | CC1CC=C(c2nsnc2SCCCCC#N)CN1C.O=C(O)C(=O)O (stereo not shown) [Compound 8, 3-(3-(4-Cyanobutylthio)-1,2,5-thiadiazol-4-yl)-1,2,5,6-tetrahydro-1,6-dimethylpyridine oxalate] | 0.69 ng/mL | 
